One data set relates to GILZ gene. Briefly: GILZ gene assay (qPCR, HUT78 / 786-O cells). The data set is classed as cell-based. Particulars: for EC50: read-out: GILZ EC50.
A further data set concerns MDCKII cells. Briefly: Apparent permeability in MDCKII cells. Format: in vitro ADME. Conditions: 1 μM, t=3 hr, average of A to B and B to A Papp.
A further data set deals with glucocorticoid receptor (Homo sapiens (Human), UniProt P04150). In words: PolarScreen Glucocorticoid Receptor Competitor Assay (GR binding). Particulars: fluormone GS red, GR full length protein; read-out: GR Bind IC50.
Sequence of glucocorticoid receptor (P04150 whole entry): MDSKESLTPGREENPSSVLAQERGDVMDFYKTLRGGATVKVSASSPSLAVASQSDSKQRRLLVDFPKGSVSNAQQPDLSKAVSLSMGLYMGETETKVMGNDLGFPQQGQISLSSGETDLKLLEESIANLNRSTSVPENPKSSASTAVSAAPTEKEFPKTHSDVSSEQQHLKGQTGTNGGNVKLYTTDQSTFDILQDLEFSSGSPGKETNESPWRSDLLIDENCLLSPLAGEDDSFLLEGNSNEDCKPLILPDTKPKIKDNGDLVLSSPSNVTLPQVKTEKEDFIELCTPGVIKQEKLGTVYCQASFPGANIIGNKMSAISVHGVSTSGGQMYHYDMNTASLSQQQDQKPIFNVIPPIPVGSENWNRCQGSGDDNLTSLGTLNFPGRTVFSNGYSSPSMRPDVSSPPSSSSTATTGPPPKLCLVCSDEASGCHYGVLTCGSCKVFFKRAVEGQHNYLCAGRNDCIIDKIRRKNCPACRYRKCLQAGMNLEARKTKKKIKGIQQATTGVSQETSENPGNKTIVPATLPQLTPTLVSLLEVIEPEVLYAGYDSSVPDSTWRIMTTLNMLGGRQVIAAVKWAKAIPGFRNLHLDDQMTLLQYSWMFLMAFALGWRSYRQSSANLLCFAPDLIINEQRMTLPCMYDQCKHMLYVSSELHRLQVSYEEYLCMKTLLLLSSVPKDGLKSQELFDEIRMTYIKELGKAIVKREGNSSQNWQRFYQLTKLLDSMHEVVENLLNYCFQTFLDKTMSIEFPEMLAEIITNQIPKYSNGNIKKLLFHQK
The subject of another data set is ZBTB16 mRNA. In words: Up-regulation of ZBTB16 mRNA in primary human B cells. The data set is classed as cell-based. Particulars: free payload. The procedure:
The carrier solution for all ADCs and naked antibodies was 50 mM histidine pH 6.0, 100 mM NaCl and 5% trehelose. To assure consistency across experiments, ADCs were thawed on ice, dispensed to small aliquots, frozen to −80° C., and those aliquots were then used for experiments with unused material discarded at the end of the day. For all in vitro studies in this report, none of the read outs were measurably different in the presence or absence of the carrier solution. Nevertheless, the final concentration of antibody carrier solution was maintained constant at 1% v/v by serially diluting antibody solution prior to addition to the assay mixture and adding carrier solution to control wells.
For the studies of ADCs bearing reduced permeability payloads frozen human CD19+ B cells purchased from Precision Biosciences (catalog #84400, donor #13108) were thawed and re-suspended in RPMI1640 plus 10% heat-inactivated FBS (cell culture medium) at 1 million cells/mL. […] B cells were bulk treated in a 96-well block and subsequently dispensed to 96 well plates (100 μL and […] cells per well) and incubated at 37° C., 5% CO2 for 18 or 40 hr. Control wells containing equal percentages of DMSO (0.1%) and ADC buffer (1%) as sample wells were included. Cells were transferred to a 96 well v-bottom plate and spun at 500×g for 5 min. Medium was removed and cells were lysed in 150 μL RLT buffer containing beta-mercaptoethanol. RNA was isolated (RNeasy 96 kit, Qiagen, Cat #74181) and cDNA was synthesized (iScript cDNA Synthesis Kit, BioRad, Cat #170-8891) according to the supplier's protocol. Quantitative PCR was performed on Applied Biosystem's 7900 HT Real-Time PCR System to measure expression of ZBTB16 (Life Technologies, Hs00957433_m1) and GAPDH (Life Technologies, Hs02758991_g1) in duplex format.
The ΔΔCt method was used to calculate fold change of expression of ZBTB16 relative to control sample, using 3 replicates per treatment condition. For free cell impermeable compounds, B cells were seeded at 100,000 cells/well in 90 μL in a 96-well flat bottom plate. Three fold serial dilutions were performed in DMSO, subsequent intermediate 10× stocks were made in tissue-culture medium and then added to the cell plate (10 μL/well). Cells were incubated at 37° C., 5% CO2 for 18 hr, harvested and processed for PCR as described above. EC50 curves were calculated using Graph Pad Prism 6 software using nonlinear fit (agonist) vs. response-variable slope (four parameters) calculation.
Potency and maximum activity of reduced permeability glucocorticoids (free payload) and the corresponding anti-CD74-drug conjugates on up-regulation of ZBTB16 mRNA levels in primary human B cells in vitro.

Experimental for GILZ gene: GILZ gene assays were conducted as follows. HUT78 cells were cultured in IMEM plus 20% heat inactivated FBS and cell density was maintained between 0.1 to 1.2 million/mL. 786-O cells were cultured in RPMI plus 10% heat inactivated FBS. Actively growing cells were harvested and resuspended in HBSS with 2% FBS at 1.1 million cells per mL then dispensed to 384-well V-bottom plates at 45 μL per well. Serially diluted ADC solution was added to the cell plate (5 μL per well) and mixed for 2 min. Cells were then cultured at 37° C., at 5% CO2 for a designated time before supernatant was removed. Cells were harvested in lysis buffer from the Cells-to-Ct kit (40 μL, Life Technologies, 4391851C) following the supplier's protocol and mixed for 10 min followed by addition of 5 μL per well of stop solution from the kit. cDNA was synthesized with a reverse transcription kit (Life Technologies, 4391852C) follow by qPCR using the TaqMan gene expression master mix (Life Technologies, 4369016) with GILZ gene assay (Life Technologies, Hs00608272_m1) and GAPDH assay (Hs2758991_g1) in a duplex format with 3-4 technical replicates.
Experimental for MDCKII cells: Determination of apparent permeability was as follows. MDCKII cells (kindly provided by the Netherlands Cancer Institute, under a licensing agreement) were seeded on to 96-well transwell culture plates (Millipore Corp, Billerica, Mass.) and used in experiments after five days in culture. […] Substrate solution (150 μL) was added to either the apical (A) or the basolateral (B) compartment of the culture plate, and buffer (150 μL; HBSS, 10 mM HEPES, pH 7.4) with 10 μM cyclosporine A was added to the compartment opposite to that containing the substrate. At t=3 hr, 50 μL samples were removed from both sides of monolayers dosed with test compound and placed in 96 well plates, 50 μL internal standard (1 μM labetolol) and 100 μL HBSS was added to the samples. Samples were analyzed by LC/MS/MS using an Applied Biosystems SCIEX API 5000 triple quadruple mass spectrometer (Concord, ON, Canada) with a TurbolonSpray ion source in the positive ion mode. A Thermo Scientific Transcend LX-2 system (Franklin, Mass.) was coupled to the API 5000 with a flow rate of 800 μL/min to direct sample into the mass spectrometer.
Papp was expressed as 10^−6 cm/s.
Experimental for glucocorticoid receptor: The potency of binding to glucocorticoid receptor by small molecule compounds was measured with the PolarScreen™ Glucocorticoid Receptor Competitor Assay Kit, Red (Life Technology, Catalog #A15898) according to the procedure in the kit. In brief, after compounds were diluted and transferred into assay plates, the fluormone GS red and GR full length protein were subsequently added into the assay plates, along with the positive and negative controls. The samples were mixed on a shaker for 1 minute and then the plates were incubated at room temperature for 2-4 hours with minimal light exposure. The plates were read with an Envision and the relative fluorescent signals were calculated. The data were plotted in GraphPad Prism and the EC50 values were calculated with non-linear regression curve fit of the data in GraphPad Prism.

With `CCCC1O[C@@H]2C[C@H]3[C@@H]4CCC5=CC(=O)C=C[C@]5(C)[C@H]4[C@@H](O)C[C@]3(C)[C@]2(C(=O)CO)O1` (stereo partly drawn) [Budesonide, reference compound], the “GILZ Max” value in the data set on GILZ gene (concentration not given) is 100%. Besides, the EC50 in the data set with GILZ gene was determined as 1 nM. Further, the “MDCK Permeability (cm × 10−6/sec)” value with MDCKII cells turned out to be 31.6 cm × 10−6/sec.
With `CCC(=O)O[C@]1(C(=O)SCCCCP(=O)(O)O)[C@H](C)C[C@H]2[C@@H]3C[C@H](F)C4=CC(=O)C=C[C@]4(C)[C@@]3(F)[C@@H](O)C[C@@]21C` [Compound 4], the IC50 at glucocorticoid receptor worked out at 0.71 nM. For the same compound, the “GILZ Max” value in the data set with GILZ gene (at 100 nM) is recorded as <10% (at. Also, the 50% effective concentration (EC50) with GILZ gene is greater than 100 nM. For the same compound, the “MDCK Permeability (cm × 10−6/sec)” value in the data set on MDCKII cells turned out to be 1.72 cm × 10−6/sec.
Take `C[C@@H]1C[C@H]2[C@@H]3C[C@H](F)C4=CC(=O)C=C[C@]4(C)[C@@]3(F)[C@@H](O)C[C@]2(C)[C@@]1(O)C(=O)SCCCCP(=O)(O)O` [Compound 5]: the IC50 at glucocorticoid receptor was 160 nM. For the same compound, the “GILZ Max” value in the data set on GILZ gene (at 100 nM) is recorded as 24% (at. Also, the EC50 with GILZ gene was greater than 10000 nM. Besides, the “MDCK Permeability (cm × 10−6/sec)” value in the data set on MDCKII cells was found to be 1.84 cm × 10−6/sec.
Take `CCC(=O)O[C@]1(C(=O)SCCOCCOCCP(=O)(O)O)[C@H](C)C[C@H]2[C@@H]3C[C@H](F)C4=CC(=O)C=C[C@]4(C)[C@@]3(F)[C@@H](O)C[C@@]21C` [Compound 6]: the half-maximal inhibitory concentration (IC50) on glucocorticoid receptor is 0.32 nM. Besides, the “GILZ Max” value with GILZ gene (at 10 uM) is on record as 40% (at. The EC50 with GILZ gene is greater than 10000 nM.
Take `CCC(=O)O[C@]1(C(=O)SCCCCCCP(=O)(O)O)[C@H](C)C[C@H]2[C@@H]3C[C@H](F)C4=CC(=O)C=C[C@]4(C)[C@@]3(F)[C@@H](O)C[C@@]21C` [Compound 7]: the IC50 on glucocorticoid receptor worked out at 0.45 nM. The “GILZ Max” value in the data set with GILZ gene (at 10 uM) is 64% (at. In addition, the EC50 with GILZ gene stood at 6450 nM. The “MDCK Permeability (cm × 10−6/sec)” value with MDCKII cells is listed as 2 cm × 10−6/sec.
Taken in the same sequence, the figures for `C[C@@H]1C[C@H]2[C@@H]3C[C@H](F)C4=CC(=O)C=C[C@]4(C)[C@@]3(F)[C@@H](O)C[C@]2(C)[C@@]1(O)C(=O)SCCCCCCCCCCP(=O)(O)O` [Compound 8] were 0.25 nM, 66% (at, 970 nM and 2.8 cm × 10−6/sec.
For `C[C@@H]1C[C@H]2[C@@H]3C[C@H](F)C4=CC(=O)C=C[C@]4(C)[C@@]3(F)[C@@H](O)C[C@]2(C)[C@@]1(O)C(=O)SCCOCCOCCP(=O)(O)O` [Compound 9], the half-maximal inhibitory concentration (IC50) on glucocorticoid receptor was 1.67 nM. In the data set on GILZ gene (at 10 uM), the “GILZ Max” value is 14.5%. For the same compound, the EC50 in the data set on GILZ gene was greater than 10000 nM.
For the compound `C[C@@H]1C[C@H]2[C@@H]3C[C@H](F)C4=CC(=O)C=C[C@]4(C)[C@@]3(F)[C@@H](O)C[C@]2(C)[C@@]1(O)C(=O)SCCCCCCP(=O)(O)O` [Compound 10], the IC50 at glucocorticoid receptor was 1.99 nM. Further, in the data set with GILZ gene (at 10 uM), the “GILZ Max” value worked out at 17.3%. For the same compound, the EC50 in the data set on GILZ gene is greater than 10000 nM. Also, the “MDCK Permeability (cm × 10−6/sec)” value in the data set with MDCKII cells was found to be 1.9 cm × 10−6/sec.
As for `C[C@@H]1C[C@H]2[C@@H]3C[C@H](F)C4=CC(=O)C=C[C@]4(C)[C@@]3(F)[C@@H](O)C[C@]2(C)[C@@]1(O)C(=O)SCCP(=O)(O)O` [Compound 11], the “GILZ Max” value in the data set on GILZ gene (at 10 uM) is 81% (at. Further, in the data set with GILZ gene, the EC50 amounted to 2860 nM.
With `CCC(=O)O[C@]1(C(=O)SCCP(=O)(O)O)[C@H](C)C[C@H]2[C@@H]3C[C@H](F)C4=CC(=O)C=C[C@]4(C)[C@@]3(F)[C@@H](O)C[C@@]21C` [Compound 12], the IC50 on glucocorticoid receptor was 162 nM. For the same compound, the “GILZ Max” value with GILZ gene (at 10 uM) is recorded as 36% (at. Also, the EC50 in the data set on GILZ gene stood at 6780 nM.
In the same order, the values of `C[C@@H]1C[C@H]2[C@@H]3C[C@H](F)C4=CC(=O)C=C[C@]4(C)[C@@]3(F)[C@@H](O)C[C@]2(C)[C@@]1(O)C(=O)SCCCP(=O)(O)O` [Compound 13] are 1220 nM, 24% (at and greater than 10000 nM.
Taken in the same sequence, the figures for `CCC(=O)O[C@]1(C(=O)SCCCP(=O)(O)O)[C@H](C)C[C@H]2[C@@H]3C[C@H](F)C4=CC(=O)C=C[C@]4(C)[C@@]3(F)[C@@H](O)C[C@@]21C` [Compound 14] were 18.1 nM, 15% (at and greater than 10000 nM.
Taken in the same sequence, the figures for `C[C@@H]1C[C@H]2[C@@H]3C[C@H](F)C4=CC(=O)C=C[C@]4(C)[C@@]3(F)[C@@H](O)C[C@]2(C)[C@@]1(OC(=O)CCCCCP(=O)(O)O)C(=O)SCF` [Compound 19, (6-(((6S,8S,9R,10S,11S,13S,14S,16R,17R)-6,9-difluoro-17-(((fluoromethyl)thio)carbonyl)-11-hydroxy-10,13,16-trimethyl-3-oxo-6,7,8,9,10,11,12,13,14,15,16,17-dodecahydro-3H-cyclopenta[a]phenanthren-17-yl)oxy)-6-oxohexyl)phosphonic acid] were 0.14 nM, 88% (at and 1290 nM.
Regarding `CCCC1O[C@@H]2C[C@H]3[C@@H]4CCC5=Cc6c(cnn6-c6cccc(OCCCCP(=O)(O)O)c6)C[C@]5(C)[C@H]4[C@@H](O)C[C@]3(C)[C@]2(C(=O)CO)O1` (stereo partly drawn) [Compound 28], the IC50 on glucocorticoid receptor was found to be 4.1 nM. Besides, the “GILZ Max” value with GILZ gene (at 10 uM) is on record as 101% (at. Besides, the EC50 in the data set with GILZ gene is 1270 nM. The “MDCK Permeability (cm × 10−6/sec)” value in the data set with MDCKII cells turned out to be 1.6 cm × 10−6/sec.
Turning to `CCCC1O[C@@H]2C[C@H]3[C@@H]4CCC5=Cc6c(cnn6-c6cccc(OCCCCCCCCCP(=O)(O)O)c6)C[C@]5(C)[C@H]4[C@@H](O)C[C@]3(C)[C@]2(C(=O)CO)O1` (stereo partly drawn) [Compound 29], at glucocorticoid receptor, the IC50 was determined as 24.2 nM. For the same compound, the “GILZ Max” value in the data set on GILZ gene (at 10 uM) was 96% (at. For the same compound, in the data set on GILZ gene, the EC50 is 558 nM.
For `CCCC1O[C@@H]2C[C@H]3[C@@H]4CCC5=Cc6c(cnn6-c6ccc(OCCCCP(=O)(O)O)cc6)C[C@]5(C)[C@H]4[C@@H](O)C[C@]3(C)[C@]2(C(=O)CO)O1` (stereo partly drawn) [Compound 30], at glucocorticoid receptor, the IC50 was determined as 2.4 nM. Further, in the data set with GILZ gene (at 10 uM), the “GILZ Max” value is listed as 61% (at. The concentration for a half-maximal effect (EC50) with GILZ gene is 3010 nM. The “MDCK Permeability (cm × 10−6/sec)” value with MDCKII cells is recorded as 1.9 cm × 10−6/sec.
In the same order, the values of `CCCC1O[C@@H]2C[C@H]3[C@@H]4CCC5=Cc6c(cnn6-c6ccc(OCCCCCCP(=O)(O)O)cc6)C[C@]5(C)[C@H]4[C@@H](O)C[C@]3(C)[C@]2(C(=O)CO)O1` (stereo partly drawn) [Compound 31] are 3.9 nM, 47% (at, 4180 nM and 4.1 cm × 10−6/sec.
For `CCCC1O[C@@H]2C[C@H]3[C@@H]4CCC5=Cc6c(cnn6-c6ccc(OCCCCCCCCCP(=O)(O)O)cc6)C[C@]5(C)[C@H]4[C@@H](O)C[C@]3(C)[C@]2(C(=O)CO)O1` (stereo partly drawn) [Compound 32], the IC50 at glucocorticoid receptor worked out at 115 nM. In addition, the “GILZ Max” value in the data set with GILZ gene (at 10 uM) was 86% (at. In the data set on GILZ gene, the EC50 stood at 4150 nM.
For the compound `C[C@@H]1C[C@H]2[C@@H]3CCC4=CC(=O)C=C[C@]4(C)[C@@]3(F)[C@@H](O)C[C@]2(C)[C@@]1(O)C(=O)CO` [Dexamethasone, reference compound], in the data set on GILZ gene (concentration not given), the “GILZ Max” value worked out at 100%. The EC50 in the data set on GILZ gene came to 3.7 nM.
As for `CCC(=O)O[C@]1(C(=O)SCF)[C@H](C)C[C@H]2[C@@H]3C[C@H](F)C4=CC(=O)C=C[C@]4(C)[C@@]3(F)[C@@H](O)C[C@@]21C` [Fluticasone Propionate, reference compound], in the data set with GILZ gene (concentration not given), the “GILZ Max” value turned out to be 100%. The EC50 in the data set with GILZ gene came out at 0.2 nM; in the data set on ZBTB16 mRNA it was 0.019 nM. Besides, in the data set with MDCKII cells, the “MDCK Permeability (cm × 10−6/sec)” value amounted to 21.5 cm × 10−6/sec.
In the case of “(6-(3-((3aR,4aS,4bS,11aR,11bS,12S,13aS,13bS)-12-hydroxy-13b-(2-hydroxyacetyl)-11a,13a-dimethyl-2-propyl-4,4a,5,6,11,11a,11b,12,13,13a-decahydro-[1,3]dioxolo[4″,5″:3′,4′]cyclopenta[1′,2′:5,6]naphtho[1,2-f]indazol-8 (3aH,4bH,13bH)-yl)phenoxy)hexyl)phosphonic acid [Compound 27]”, the “GILZ Max” value with GILZ gene (at 10 uM) was 80% (at. Besides, the EC50 in the data set on GILZ gene came out at 2760 nM.

The term EC50 denotes the concentration giving half of the maximal effect. As a reminder, the IC50 is the concentration that inhibits the measured activity by half.

The record behind these values is US10869929B2, “Phosphonate linkers and their use to facilitate cellular retention of compounds” (priority 2016, dated 2020).
